Results taken from US9744252B2, “Compounds for binding to the platelet specific glycoprotein IIb/IIIa and their use for imaging of thrombi” (PIRAMAL IMAGING SA, priority 2011, dated 2017).
Where “and” joins values, the source holds several entries; their conditions need not be identical. Equal entries are not always repeated. Entries after “also recorded” stand apart in the source; their conditions may differ. Where two headings read alike, the source gives them in different places.

Tests used:
[1] = test system: human thrombi; test: Ex vivo blood flow model: binding to human thrombi, with cold-compound competition; details: 3 minutes post-injection of 18F-labeled compound; ± SEM
Description: Binding to Human Thrombi:
The binding of compounds to thrombi was further investigated in an ex vivo blood flow model similar to that described in “Wakhloo, A. K. et al. Thrombus and stroke 2008, in vitro models 57-66” but modified with regard to thrombus development. Briefly, an open handmade tube-set consisting of tygon-tubes (Tygon R-1000, part No AAU00007: I.D. 3.2 mm, O.D. 6.4 mm, Saint Gobain Performance Plastics North America), intermediate tubes (Intrafix® Infusion set, B. Braun, Melsungen, Germany) an open reservoir (10 mL Combitip, Eppendorf) and a chamber made of a piece of polyethylene-Tube, ([…] Polyethylene Tubing, Clay Adams, PE160, length: 6.5 cm) containing a loop of a roughened thread (fishing line: Okuma UltraMax whitefish, diameter: 0.14 mm, length: 5 cm; sandpaper: CAMI Grit designation: 600, CP918a, VSM) was used for thrombus formation. The connection between the intermediate tube and the thrombus chamber was made by trimmed tips (epTIPS, 200 μL, Eppendorff, Hamburg/Germany). The Reservoir and the thrombus chamber were fixed by clamps and stands. A peristaltic-pump (Minipuls 3, Gilson, Middelton/USA) was used to pump the blood around thereby adjusting the flow in the middle of the thrombus chamber to 70-90 cm per second, which was monitored by ultrasound Doppler measurement (Vevo 770 High-Resolution In Vivo Micro-Imaging System, VisualSonics, Toronto/Ontario, Canada; Scanhead: RMV 704, 40 MHz). The volume of the entire tube-set was 7.5 or 15 mL.
For each experiment fresh blood was taken from a volunteer using 10 mL citrate-tubes (Sarstedt S-Monovette 02.1067.001, 10 mL, Citrate 3.13%) and immediately laid into the turning-device of an incubator at a temperature of 37° C. (Heraeus miniTherm CTT with integrated rotation- and turning device, turning speed: 19 rotations per minute, Heraeus Instruments GmbH, Hanau/Germany). As needed, two tubes were taken out of the turning-device and 15 mL were transferred to a 20 mL Syringe (Omnifix®, B. Braun, Melsungen/Germany) and gently mixed with 0.75 mL CaCl2—Solution before the peristaltic pump was started and the whole content of the syringe was transferred into the reservoir of the tube-set via a cell strainer (BD Falcon™ cell strain, 40 μm, BD, Franklin Lakes, N.J. USA). […] Then, the pump was stopped, aliquots were taken from the blood and the thrombus together with the roughened thread was removed from the thrombus-chamber before both was weighted and measured in a gamma counter (Automatic Gamma Counter Wizard^2 3, Perkin Elmer). […] Finally the activity of the compound in blood and thrombus as well as the ratio between both was determined (cpm/weight [mg]). […]

[2] = Pharmacokinetics / biodistribution in mice; format: in vivo; details: nude mice, 185 KBq
Description: FIG. 3: Biodistribution of the compound described in example 41 in mice.
The biodistribution of the compound described in example 41 was determined in nude mice. Briefly, the mice received 185 KBq of the compound each. At different time points (1, 3, 10, 30, 120 minutes p.i., 3 mice per group) the animals were sacrificed and the organs of interest or aliquots thereof were removed, weighted and finally measured in a gamma counter (Automatic Gamma Counter Wizard^2 3, Perkin Elmer).

[3] = Blood clearance in a cynomolgus monkey (PET and gamma counter); format: in vivo; details: 25 MBq i.v., PET
Description: FIG. 4: Blood kinetics of the compound described in example 40 in cynomolgus monkey.
PET-imaging was performed continuously from shortly before up to 60 minutes post injection. Venous blood samples were taken at 3, 10, 30 and 60 minutes p.i. and were measured in a gamma-counter (Automatic Gamma Counter Wizard^2 3, Perkin Elmer) and expressed as cpm/mg blood. Additionally, the blood-concentration of the compound was measured from the PET-Image over the whole imaging period and expressed as % ID/g.
Blood Clearance in a Cynomolgus Monkey
The blood clearance of the compound described in example 40 has been determined in a cynomolgus monkey. A female cynomolgus monkey was anesthetized with a mixture of Xylazin (Rompun®, Bayer HealthCare, Leverkusen, Germany), 0.12 mL/kg bodyweight and Ketamine (Ketavet®, Pfizer) 0.12 mL/kg bodyweight i.m. The monkey was placed inside the PET-scanner (Inveon PET/CT, Siemens Medical, Erlangen) and 25 MBq of the compound has been injected i.v. while PET-imaging was performed continuously from shortly before up to 60 minutes post injection. Venous blood samples were taken at 3, 10, 30 and 60 minutes p.i. and were measured in a gamma-counter (Automatic Gamma Counter Wizard^2 3, Perkin Elmer). Additionally, the blood-concentration of the compound was measured from the PET-Image over the whole imaging period (FIG. 4).

[4] = test system: arterial and venous thrombi; test: Thrombus PET imaging and in vivo clot-to-blood ratio in cynomolgus monkeys; set-up: species or system cynomolgus monkey
Description: Thrombus-Imaging in Cynomolgus Monkeys
The ability of the compound described in example 40 for the imaging of thrombi was investigated in a PET-study with cynomolgus monkeys (female, 2.8-3.2 kg).
The first monkey was anesthetized with a mixture of Xylazin (Rompun®, Bayer HealthCare, Leverkusen, Germany), 0.12 mL/Kg and Ketamine (Ketavet®, Pfizer) 0.12 mL/Kg b.w. i.m. and additionally analgesized by an i.m. injection of 6 μg Buprenorphine per kg. While the investigation, small amounts of Ketamine have been injected i.m. if required. The left common carotid artery was exposed surgically and a polyethylene-tube ([…] Polyethylene Tubing, Clay Adams, PE50), which was roughened previously by sandpaper (600—CAMI Grit designation), was inserted into the vessel, advanced into the descending aorta and was left there for 30 minutes to allow for the development of a thrombus on the rough surface of the tube. Meanwhile, the monkey was placed inside the PET-scanner (Inveon PET/CT, Siemens Medical, Erlangen). […] The thickness of this layer was far below 1 mm (see also removed thrombus of Monkey 2, FIG. 7) and therewith also far below the resolution of the image, which is approximately 1 mm. This also means, that even slightest thrombi, even if their size is far less than the resolution of the imaging-device, can be visualized due to the massive accumulation of compound on the platelets of the thrombi.
At the end of the experiment the tube was removed carefully from the vessel before it was weighted and measured in a gamma counter (Automatic Gamma Counter Wizard^2 3, Perkin Elmer). […] Finally the activity of the compound in blood and thrombus as well as the ratio between the two was determined (cpm/weight [mg]). […]
The in vivo clot-to-blood ratio was determined from 5 thrombi out of the above described monkey experiments. As already mentioned above the thrombi had been removed from the vessels after imaging and had been weighted and measured in a gamma-counter (Automatic Gamma Counter Wizard^2 3, Perkin Elmer) together with blood samples taken from the animal. After incubation of the thrombi in Plasmin (Plasmin from Human Plasma, Sigma Aldrich, Plasmin-stock-solution: 500 μg Plasmin in 500 μL Tris-buffer (150 μM, pH 7.8), 20 μL Plasmin-stock-solution to 230 μL saline solution 0.9%) and removal of the thrombi from the catheter tubes, the netto weight of the thrombi was calculated and the concentration of the compound in thrombus (clot) and blood, as well as the ratio between the two was calculated.

[5] = In vitro metabolic stability in liver microsomes, human; details: all investigated species
Description: (§1) Human liver microsomes in suspension (protein content 0.5 mg/mL) were used for metabolic stability studies. The incubation concentration was 0.3 μM. […] After addition of 30 μL of test compound the assay was started. The compound was dissolved in an organic solvent and diluted with the same liver microsome medium in order to keep the organic content below the recommended concentration (dimethylsulfoxide DMSO <0.2% and methanol <1%). […] The samples were frozen over night at −20° C. The solutions were centrifuged for 15 min at 3000 g. The clear supernatant (100 μL) was used to determine the concentration. The analysis was performed with an Agilent 1200 HPLC system with a LCMS/MS detector.
(§2) The susceptibility of investigated compounds to degradation by phase-I oxidative metabolism was investigated using liver microsomes from different species.

[6] = In vitro metabolic stability in liver microsomes, mouse; format: in vitro ADME; details: NMRI, female, 0.3 μM, calculated
Description: In Vitro Metabolic Stability in Liver Microsomes
The incubation concentration was 0.3 μM. […] The samples were frozen over night at −20° C.
The recovery was almost 100% for all investigated species.

[7] = both, human, 0.3 μM, pH 7.4
Description: as §1, §2

[8] = female, cynomolgus monkey, 0.3 μM, pH 7.4
Description: as §1, §2

[9] = male, Wistar, rat, 0.3 μM, pH 7.4
Description: as §1, §2

O=C(O)C[C@H](NC(=O)[C@@H]1CCCN(C(=O)CCC2CCNCC2)C1)c1cncc(-c2ccc(OCC[18F])cc2)c1 [Example 41, (3S)-3-{5-[4-(2-[^18F]Fluoroethoxy)phenyl]pyridin-3-yl}-3-[({(3R)-1-[3-(piperidin-4-yl)propanoyl]piperidin-3-yl}carbonyl)amino]propanoic acid]
Accumulation Thrombus [10^3 cpm/mg] [1]: 44 ± 7 (n = 6) 10^3 cpm/mg
elimination from the blood [2]: rapidly eliminated from the blood
enhancement in the vessel-wall [2]: no enhancement in the vessel-wall
excretion [2]: quickly excreted over the kidney and liver

O=C(O)C[C@H](NC(=O)[C@@H]1CCCN(C(=O)CCC2CCNCC2)C1)c1cccc(OCC[18F])c1 [Example 38, (3S)-3-[3-(2-[^18F]Fluoroethoxy)phenyl]-3-[({(3R)-1-[3-(piperidin-4-yl)propanoyl]piperidin-3-yl}carbonyl)amino]propanoic acid]
Accumulation Thrombus [10^3 cpm/mg] [1]: 41 ± 3 (n = 5) 10^3 cpm/mg

O=C(O)C[C@H](NC(=O)[C@@H]1CCCN(C(=O)CCC2CCNCC2)C1)c1ccc(OCC[18F])cc1 [Example 39, (3S)-3-[4-(2-[^18F]Fluoroethoxy)phenyl]-3-[({(3R)-1-[3-(piperidin-4-yl)propanoyl]piperidin-3-yl}carbonyl)amino]propanoic acid]
Accumulation Thrombus [10^3 cpm/mg] [1]: 86 ± 9 (n = 6) 10^3 cpm/mg

O=C(O)C[C@H](NC(=O)[C@@H]1CCCN(C(=O)CCC2CCNCC2)C1)c1cncc(OCC[18F])c1 [Example 40, (3S)-3-[5-(2-[^18F]Fluoroethoxy)pyridin-3-yl]-3-[({(3R)-1-[3-(piperidin-4-yl)propanoyl]piperidin-3-yl}carbonyl)amino]propanoic acid]
contrast in the brain [3]: completely free of contrast
signal in other tissue [3]: only marginal signal visible in any other tissue
Blood [cpm/mg] ([4]; blood samples after imaging, Cynomolgus monkey): 90 cpm/mg and 130 cpm/mg and 100 cpm/mg
PET signal / accumulation in thrombi ([4]; cynomolgus monkeys, 25 MBq or 15 MBq i.v., up to 60 minutes p.i.): bright signal inside the descending aorta alongside the roughened part of the tube; also recorded: all arterial and venous thrombi showed a bright signal; also recorded: surprisingly high accumulation even in slightest venous and arterial thrombi
retention within the thrombus ([4]; cynomolgus monkeys, 60 minutes shown): almost completely remains within the thrombus over a long time
background in surrounding tissue or organ ([4]; cynomolgus monkeys, PET): almost no background in any surrounding tissue or organ

N#Cc1cc(-c2cncc([C@H](CC(=O)O)NC(=O)[C@@H]3CCCN(C(=O)CCC4CCNCC4)C3)c2)ccc1[18F] [Example 42, (3S)-3-[5-(3-Cyano-4-[^18F]fluorophenyl)pyridin-3-yl]-3-[({(3R)-1-[3-(piperidin-4-yl)propanoyl]piperidin-3-yl}carbonyl)amino]propanoic acid]
Accumulation Thrombus [10^3 cpm/mg] [1]: 39 ± 5 (n = 6) 10^3 cpm/mg

O=C(O)C[C@H](NC(=O)[C@@H]1CCCN(C(=O)CCC2CCNCC2)C1)c1cncc(OCCF)c1 [Compound 3]
recovery [5]: ~100%

O=C(O)C[C@H](NC(=O)[C@@H]1CCCN(C(=O)CCC2CCNCC2)C1)c1cncc(OCCF)c1 [Example 3, (3S)-3-[5-(2-Fluoroethoxy)pyridin-3-yl]-3-[({(3R)-1-[3-(piperidin-4-yl)propanoyl]-piperidin-3-yl}carbonyl)amino]propanoic acid]
CLblood [6]: 2.4 mL/day/kg
CLblood [7]: 2.4 mL/day/kg
CLblood [8]: 2.4 mL/day/kg
CLblood [9]: 2.4 mL/day/kg
